Test results reported in ChEMBL document CHEMBL1139428, “Cocrystal structures of primed side-extending alpha-ketoamide inhibitors reveal novel calpain-inhibitor aromatic interactions” (J Med Chem, 2008).
Activity calls are given as the source filed them. No cut-off for these calls is given here.

Key:
[1] = target: T1, Calpain-1 catalytic subunit (Homo sapiens) (UniProt P07384); experiment: Inhibition of calpain 1 protease core assessed as attenuation of substrate cleavage at 50 uM by FRET
T1 sequence (whole entry): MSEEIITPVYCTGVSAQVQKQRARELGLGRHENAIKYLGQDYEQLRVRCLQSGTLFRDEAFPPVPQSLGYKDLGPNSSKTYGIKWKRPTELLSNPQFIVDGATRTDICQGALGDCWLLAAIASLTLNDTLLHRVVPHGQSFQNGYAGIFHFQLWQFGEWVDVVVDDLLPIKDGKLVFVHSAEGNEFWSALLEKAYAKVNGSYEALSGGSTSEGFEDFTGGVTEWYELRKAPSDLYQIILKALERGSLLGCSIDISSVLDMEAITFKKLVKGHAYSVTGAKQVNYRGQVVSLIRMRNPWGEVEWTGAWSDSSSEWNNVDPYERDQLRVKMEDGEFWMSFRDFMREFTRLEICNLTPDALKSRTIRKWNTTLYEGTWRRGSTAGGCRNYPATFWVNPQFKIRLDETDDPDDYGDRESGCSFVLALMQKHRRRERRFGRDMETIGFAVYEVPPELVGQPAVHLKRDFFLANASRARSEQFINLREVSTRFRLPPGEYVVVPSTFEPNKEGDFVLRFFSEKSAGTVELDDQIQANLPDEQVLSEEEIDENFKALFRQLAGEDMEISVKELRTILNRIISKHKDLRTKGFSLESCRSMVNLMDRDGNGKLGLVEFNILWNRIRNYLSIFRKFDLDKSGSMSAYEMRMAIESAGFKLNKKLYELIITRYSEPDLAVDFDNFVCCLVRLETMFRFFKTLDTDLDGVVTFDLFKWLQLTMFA

[2] = target: T2, Calpain-2 catalytic subunit (Homo sapiens) (UniProt P17655); experiment: Inhibition of m-calpain assessed as attenuation of substrate cleavage at 1 uM by FRET
T2 sequence (whole entry): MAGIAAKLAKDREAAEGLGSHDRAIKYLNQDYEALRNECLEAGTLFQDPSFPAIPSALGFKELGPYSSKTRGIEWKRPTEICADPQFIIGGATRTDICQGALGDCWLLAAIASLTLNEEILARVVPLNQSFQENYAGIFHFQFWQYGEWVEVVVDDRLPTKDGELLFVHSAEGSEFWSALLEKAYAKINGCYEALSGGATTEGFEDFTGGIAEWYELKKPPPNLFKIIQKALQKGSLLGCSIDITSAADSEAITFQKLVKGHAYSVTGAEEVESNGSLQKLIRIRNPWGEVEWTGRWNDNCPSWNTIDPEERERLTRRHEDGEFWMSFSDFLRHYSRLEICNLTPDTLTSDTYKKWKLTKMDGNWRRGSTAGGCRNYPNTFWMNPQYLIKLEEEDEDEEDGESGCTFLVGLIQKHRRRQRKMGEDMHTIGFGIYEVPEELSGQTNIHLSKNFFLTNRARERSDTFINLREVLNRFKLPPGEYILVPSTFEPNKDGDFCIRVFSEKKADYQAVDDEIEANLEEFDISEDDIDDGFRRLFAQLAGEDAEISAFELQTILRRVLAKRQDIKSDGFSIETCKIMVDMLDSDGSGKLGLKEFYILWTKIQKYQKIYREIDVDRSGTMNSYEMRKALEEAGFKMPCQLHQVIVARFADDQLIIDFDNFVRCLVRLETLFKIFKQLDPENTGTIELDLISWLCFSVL

Activity [1]	Activity [2]	SMILES
Active	Active	CC[C@H](NC(=O)[C@H](CC(C)C)NC(=O)OCc1ccccc1)C(=O)C(=O)NCCCn1cnc2c(N)ncnc21
Active	Active	CC[C@H](NC(=O)[C@H](CC(C)C)NC(=O)OCc1ccccc1)C(=O)C(=O)NCCCN1CCN(C)CC1
